ChEMBL document CHEMBL4616581, “Current scenario of artemisinin and its analogues for antimalarial activity” (Eur J Med Chem, 2019)
In brackets after ≈: the same amount, converted by molar mass.

Legend:
Type in all cases: functional, organism-based
[1] = test system: Plasmodium falciparum; experiment: Antimalarial activity against chloroquine-resistant Plasmodium falciparum K1 after 48 hrs by [3H]-hypoxanthine incorporation assay
[2] = test system: Plasmodium falciparum; experiment: Antimalarial activity against Plasmodium falciparum HB3 after 48 hrs by [3H]-hypoxanthine incorporation assay
[3] = test system: Plasmodium falciparum; experiment: Antimalarial activity against chloroquine-sensitive Plasmodium falciparum NF54
[4] = test system: Plasmodium falciparum; experiment: Antimalarial activity against Plasmodium falciparum K1 after 48 hrs by [3H]hypoxanthine incorporation assay
[5] = test system: Plasmodium falciparum; experiment: Antimalarial activity against Plasmodium falciparum HB3 after 48 hrs by [3H]hypoxanthine incorporation assay
[6] = test system: Plasmodium falciparum; experiment: Antimalarial activity against Plasmodium falciparum W2 after 48 hrs by in presence of [3H]hypoxanthine
[7] = test system: Plasmodium falciparum; experiment: Antimalarial activity against Plasmodium falciparum D6 after 48 hrs by in presence of [3H]hypoxanthine
[8] = test system: Plasmodium falciparum; experiment: Antimalarial activity against Plasmodium falciparum 3D7 after 72 hrs by SYBR green dye-based assay; conditions: 3D7, 72 h
[9] = test system: Plasmodium falciparum; experiment: Antimalarial activity against chloroquine-resistant Plasmodium falciparum K1 after 72 hrs by SYBR green dye-based spectrofluorometer analysis; conditions: K1, 72 h
[10] = test system: Plasmodium falciparum; experiment: Antimalarial activity against chloroquine-sensitive Plasmodium falciparum 3D7 after 72 hrs by SYBR green dye-based spectrofluorometer analysis; conditions: 3D7, 72 h
[11] = test system: Plasmodium falciparum; experiment: Antimalarial activity against Plasmodium falciparum NF54
[12] = test system: Plasmodium falciparum; experiment: Antimalarial activity against blood stages of chloroquine-sensitive Plasmodium falciparum 3D7
[13] = test system: Plasmodium falciparum; experiment: Antimalarial activity against blood stages of chloroquine-resistant Plasmodium falciparum K1

`COP(=O)(OCC[C@H]1O[C@@H]2O[C@]3(C)CC[C@H]4[C@H](C)CC[C@@H]([C@H]1C)[C@@]24OO3)OCC[C@H]1O[C@@H]2O[C@]3(C)CC[C@H]4[C@H](C)CC[C@@H]([C@H]1C)[C@@]24OO3` gave an IC50 [1] of 0.2 nM and an IC50 [2] of 0.09 nM.
`C[C@@H]1CC[C@H]2[C@@H](C)C(CC(=O)c3cccc(C(=O)CC4O[C@@H]5O[C@]6(C)CC[C@H]7[C@H](C)CC[C@@H]([C@H]4C)[C@@]57OO6)c3)O[C@@H]3O[C@]4(C)CC[C@@H]1[C@]32OO4` (stereo partly specified) gave an IC50 [3] of 1.9 nM.
With `C[C@H]1[C@@H](Oc2cccc3ccccc23)O[C@@H]2O[C@]3(C)CC[C@H]4[C@H](C)CC[C@@H]1[C@@]24OO3` the IC50 [4] was 8.89 nM and the IC50 [5] was 7.06 nM.
Molecule `C[C@H]1[C@H](Oc2cccc3ccccc23)O[C@@H]2O[C@]3(C)CC[C@H]4[C@H](C)CC[C@@H]1[C@@]24OO3` has an IC50 [4] of 2.88 nM and an IC50 [5] of 2.88 nM.
For `CCOC(=O)CC[C@@H](O[C@H]1O[C@@H]2O[C@]3(C)CC[C@H]4[C@H](C)CC[C@@H]([C@H]1C)[C@@]24OO3)c1ccccc1`, the IC50 [6] was 0.213 ng/mL and the IC50 [7] was 0.496 ng/mL.
`C[C@H]1[C@H](OC(=O)CCC(=O)Oc2ccc(Nc3ncnc4ccccc34)cc2)O[C@@H]2O[C@]3(C)CC[C@H]4[C@H](C)CC[C@@H]1[C@@]24OO3` gave an EC50 [8] of 3.8 nM.
For `CC(C)CNCCOC1O[C@@H]2O[C@]3(C)CC[C@H]4[C@H](C)CC[C@@H]([C@H]1C)[C@@]24OO3` (stereo partly specified), the EC50 [9] was 2.4 nM and the EC50 [10] was 6.8 nM.
`C[C@H]1[C@@H](Oc2ccc(C(F)(F)F)cc2)O[C@@H]2O[C@]3(C)CC[C@H]4[C@H](C)CC[C@@H]1[C@@]24OO3` showed an IC50 [4] of 5.92 nM.
With `C[C@H]1[C@@H](CCOP(=O)(OCC[C@H]2O[C@@H]3O[C@]4(C)CC[C@H]5[C@H](C)CC[C@@H]([C@H]2C)[C@@]35OO4)Oc2ccccc2)O[C@@H]2O[C@]3(C)CC[C@H]4[C@H](C)CC[C@@H]1[C@@]24OO3` the IC50 [1] was 0.5 nM and the IC50 [2] was 0.18 nM.
Molecule `C=CC1=C(C)[C@@H]2CC[C@@H](C)[C@@H]3CC[C@]4(C)OO[C@@]23[C@H](O1)O4` has an IC50 [11] of 28 nM.
Molecule `C[C@H]1[C@H](OC(=O)CCC(=O)Nc2ccc3ncnc(Nc4ccc(Cl)c(Cl)c4)c3c2)O[C@@H]2O[C@]3(C)CC[C@H]4[C@H](C)CC[C@@H]1[C@@]24OO3` has an EC50 [8] of 1.4 nM.
In the case of `COc1cc(OC)c(C2O[C@@H]3O[C@]4(C)CC[C@H]5[C@H](C)CC[C@@H]([C@H]2C)[C@@]35OO4)cc1C1O[C@@H]2O[C@]3(C)CC[C@H]4[C@H](C)CC[C@@H]([C@H]1C)[C@@]24OO3` (stereo partly specified), the IC50 [3] is reported as 1.3 nM.
Molecule `CCC(=O)OC1O[C@@H]2O[C@]3(C)CC[C@H]4[C@H](C)CC[C@@H]([C@H]1C)[C@@]24OO3` (stereo partly specified) has an EC50 [9] of 0.3 nM and an EC50 [10] of 3.1 nM.
For `CCOC(=O)CC[C@@H](O[C@H]1O[C@@H]2O[C@]3(C)CC[C@H]4[C@H](C)CC[C@@H]([C@H]1C)[C@@]24OO3)c1ccc([N+](=O)[O-])cc1`, the IC50 [6] was 0.23 ng/mL and the IC50 [7] was 0.563 ng/mL.
With `CC1=C(/C=C/c2ccccc2)O[C@@H]2O[C@]3(C)CC[C@H]4[C@H](C)CC[C@@H]1[C@@]24OO3` the IC50 [11] was 16 nM.
For `C[C@@H]1CC[C@H]2[C@@H](C)C(=O)O[C@@H]3O[C@@]4(C)CC[C@@H]1[C@]32OO4` [ARTEMISININ], the EC50 [12] was 12.1 nM and the IC50 [13] was 0.68 ng/mL (≈ 2.41 nM).
`C[C@@H]1CC[C@H]2[C@@H](C)C(OC(=O)Cc3ccccc3)O[C@@H]3O[C@]4(C)CC[C@@H]1[C@]32OO4` (stereo partly specified) gave an EC50 [9] of 0.5 nM and an EC50 [10] of 2.4 nM.
Work on `C[C@@H]1CC[C@H]2[C@@H](C)C(CC(=O)c3ccc(C(=O)CC4O[C@@H]5O[C@]6(C)CC[C@H]7[C@H](C)CC[C@@H]([C@H]4C)[C@@]57OO6)cc3)O[C@@H]3O[C@]4(C)CC[C@@H]1[C@]32OO4` (stereo partly specified) yielded an IC50 [3] of 1.9 nM.
Molecule `CCOC(=O)CC[C@H](O[C@H]1O[C@@H]2O[C@]3(C)CC[C@H]4[C@H](C)CC[C@@H]([C@H]1C)[C@@]24OO3)c1ccccc1` has an IC50 [6] of 0.144 ng/mL and an IC50 [7] of 0.459 ng/mL.
Work on `CC1=C(/C=C\c2ccccc2)O[C@@H]2O[C@]3(C)CC[C@H]4[C@H](C)CC[C@@H]1[C@@]24OO3` yielded an IC50 [11] of 8.1 nM.
